Results: patent publication US11040937B2, “Amide derivative” (TOHOKU UNIVERSITY, priority 2014, dated 2021)
Like-named read-outs stand apart in the source and are kept apart here.

Key:
[1] = tested on: human OPN promoter (pOPN1-luc) in A549/OPNluc cells; assay: Luciferase assay: luciferase expression under control of OPN promoter; format: cell-based; conditions: Homo sapiens
Text: (§1) A reporter vector pOPN1-luc obtained by the insertion of a human OPN promoter sequence (−765 to 23) into the multiple cloning site of pGL-3 basic vector (Promega) expresses luciferase when transfected into animal cells. The pOPN1-luc was transfected into a human non-small cell lung cancer-derived cell line A549 together with pPUR (Clontech) that expresses a puromycin resistance gene (puromycin-N-acetyl-transferase gene), and then cells expressing luciferase which could grow a puromycin-supplemented medium were selected. The selected cells were named “A549/OPNluc cells” and used for observation of luciferase expression inhibitory effect under control of OPN promoter, as described below.
(§2) A test compound was added to a culture containing A549/OPNluc cells to observe its influence on the amount of luciferase expressed in the cells. Here, it can be considered that when the test compound has a cell cytotoxity or cell growth inhibitory effect, the total expression level of luciferase is reduced due to a reduction in the number of living cells that depends on the concentration of the test compound, and therefore the luciferase expression inhibitory effect of the test compound under control of OPN promoter cannot be properly evaluated. For this reason, WST assay for quantification of cell proliferation ability or cell viability by colorimetric measurement was firstly performed to determine IC50 (concentration for 50% inhibition of cell growth) of the test compound for cell growth. Then, luciferase activity measurement was performed to determine EC50 (concentration for 50% inhibition of luciferase expression) of the test compound for luciferase expression under control of OPN promoter.
The same steps as in the above-mentioned WST assay were performed in which each solution of only DMSO (control) or the diluted test compound (sample) was added in an amount of 0.5 μL to each well containing the cell suspension to achieve 200-fold dilution, and the solution in each well was mixed with a vortex mixer, and the 96-well plate was incubated in a CO2 incubator (at 37° C. and 5% CO2) for 48±4 hours.
Luciferase Assay Substrate (hereinafter referred to as “LAS”) supplied in Luciferase Assay Systems (Promega: Cat #E1500) was dissolved in Luciferase Assay Buffer (LAB) to prepare a luciferase reagent. 5×Cell Culture Lysis Reagent (hereinafter referred to as “CCLR”) was diluted by 5 times with water to prepare 1×CCLR.
After the incubation for 48±4 hours, the medium in each well was completely removed, and 1×CCLR was dispensed into each well in an amount of 50 μL. The 96-well plate was allowed to stand at room temperature for 30 minutes, and then 1×CCLR in each well was used as an assay sample. The luciferase reagent (100 μL) was placed in a tube for chemiluminescence measurement, and the assay sample (20 μL) was added to the tube and mixed with the luciferase reagent to measure chemiluminescence (Relative Luminescence Intensity: RLU) using TB 20/20 (Promega) or GloMax 20/20 (Promega).
The RLU values of the control wells and the sample wells at each concentration were input into an Excel file, and the percentages of RLU values of the sample wells at each concentration to the average RLU value of the control wells were determined. From these values, a fitted curve was determined by the method of least squares to calculate EC50. Also, the percentages of RLU values of the sample wells at each concentration to the average RLU value of the control wells were divided by the percentages of absorbance values of the compounds in WST assay at the same concentrations as those of this assay (to the control), and a fitted curve was determined from the calculated values by the method of least squares to calculate corrected EC50.

A549/OPNluc cells = assay: WST assay for cell growth / cell viability; format: cell-based, human; conditions: Homo sapiens, A549, A549/OPNluc cells, 48±4 hours, WST-1; read-out: IC50 (concentration for 50% inhibition of cell growth)
Text: as §1, §2
A549/OPNluc cells were suspended in DMEM medium containing 10% fetal calf serum (FCS) and 1% penicillin/streptomycin (P/S) at 3×10^4 cells/mL to obtain a cell suspension, and then the cell suspension was dispensed into each well of a 96-well plate in an amount of 100 μL. In order to perform the assay in triplicate, wells were prepared for a control group, and 3 wells were prepared for each test compound-treated group at each concentration. After the dispensation, the 96-well plate was incubated in a CO2 incubator (at 37° C. and 5% CO2) for 24±4 hours.
The present compound was dissolved in dimethylsulfoxide (DMSO) to obtain a 50 mmol/L solution, and the compound solution was stored at −80° C. The compound solution was diluted with DMSO in 2-fold dilution series (usually, in the range of 0.31 mmol/L to 20 mmol/L) to prepare test compound solutions whose concentration varied by two fold for WST assay.
Each solution of only DMSO (control) and the diluted test compound (sample) was dispensed into each well containing the cell suspension in an amount of 0.5 μL (200-fold dilution). The solution in each well was mixed with a vortex mixer, and then the 96-well plate was incubated in a CO2 incubator (at 37° C. and 5% CO2) for 48±4 hours. Then, Premix WST-1 Reagent (TAKARA BIO INC.) was added in an amount of 10 μL to each well. The solution in each well was mixed with a vortex mixer, and then the 96-well plate was incubated at 37° C. and 5% CO2. After 60 minutes or 120 minutes, the absorbance values (450 nm) were measured with a microplate reader (Bio-Rad; Benchmark or Thermo Scientific; Varioskan Flash).
The absorbance values of the control wells and the sample wells at each concentration were input into an Excel file to determine the percentages of absorbance values of the sample wells at each concentration with to the average absorbance value of the control wells. From the determined values, a fitted curve was determined by the method of least squares to calculate IC50.

[2] = A549, A549/OPNluc cells, 48±4 hours, read-out: EC50 (concentration for 50% inhibition of luciferase expression)
[3] = A549, EC50 corrected for decrease in viable cells (RLU % divided by WST %), read-out: corrected EC50

SMILES | EC50 [1, 2] [µM] | EC50 [1, 3] [µM] | IC50 (A549/OPNluc cells) [µM]
COc1ccc(Oc2cccc(NC(=O)CCCNC(=O)c3ccc(O)cc3)c2)cc1 [Compound 27, N-(4-(3-(4-Methoxyphenoxy)phenylamino)-4-oxobuthyl)-4-hydroxybenzamide] | 19.8 | 26.6 | 71.9
COc1ccc(Oc2ccccc2NC(=O)CNC(=O)c2ccc(O)cc2)cc1 [Compound 28, N-(2-(2-(4-Methoxyphenoxy)phenylamino)-2-oxoethyl)-4-hydroxybenzamide] | 41.5 | 53.7 | > 100
COc1ccc(Oc2ccccc2NC(=O)CCNC(=O)c2ccc(O)cc2)cc1 [Compound 29, N-(3-(2-(4-methoxyphenoxy)phenylamino)-3-oxopropyl)-4-hydroxybenzamide] | 51.4 | 62.1 | > 100
COc1ccc(Oc2ccc(NC(=O)CCNC(=O)c3ccc(O)cc3)cc2)cc1 [Compound 30, N-(3-(4-(4-methoxyphenoxy)phenylamino)-3-oxopropyl)-4-hydroxybenzamide] | 7 | 12.6 | 52.3
O=C(Nc1cccc(Oc2ccc(Cl)cc2)c1)C1CN(C(=O)c2ccc(O)cc2)C1 [Compound 31, N-(3-(4-chlorophenoxy)phenyl)-1-(4-hydroxyphenylcarbonyl)azetidine-3-carboxamide] | 9.3 | 11 | 26.9
O=C(Nc1cccc(Oc2ccc(Cl)cc2)c1)C1CCN(C(=O)c2ccc(O)cc2)C1 (stereo not drawn) [Compound 32, N-(3-(4-chlorophenoxy)phenyl)-1-(4-hydroxyphenylcarbonyl)pyrrolidine-3-carboxamide] | 8 | 9.3 | 24.7
O=C(Nc1cccc(Oc2ccc(Cl)cc2)c1)C1CCCN(C(=O)c2ccc(O)cc2)C1 (stereo not drawn) [Compound 33, N-(3-(4-Chlorophenoxy)phenyl)-1-(4-hydroxyphenylcarbonyl)piperidine-3-carboxamide] | 8.5 | 11.1 | 25.9
O=C(Nc1cccc(Oc2ccc(Cl)cc2)c1)C1CCCN1C(=O)c1ccc(O)cc1 (stereo not drawn) [Compound 34, N-(3-(4-Chlorophenoxy)phenyl)-1-(4-hydroxyphenylcarbonyl)pyrrolidine-2-carboxamide] | 24.9 | 32.9 | 55.1
O=C(CCNC(=O)c1cccs1)Nc1cccc(Oc2ccc(Cl)cc2)c1 [Compound 35, N-(3-(3-(4-Chlorophenoxy)phenylamino)-3-oxopropyl)thiophene-2-carboxamide] | 23.8 | 41.4 | 74.6
O=C(CCNC(=O)c1ccsc1)Nc1cccc(Oc2ccc(Cl)cc2)c1 [Compound 36, N-(3-(3-(4-Chlorophenoxy)phenylamino)-3-oxopropyl)thiophene-3-carboxamide] | 22 | 31.2 | 43.3
O=C(CCNC(=O)c1ccncc1)Nc1cccc(Oc2ccc(Cl)cc2)c1 [Compound 37, N-(3-(3-(4-Chlorophenoxy)phenylamino)-3-oxopropyl)pyridine-4-carboxamide] | 15.6 | 20.9 | 60.1
